Conditions: 283.16 K, Liquid, Vibrating tube method

CCCC(=O)OCC(COC(=O)CCC)(COC(=O)CCC)COC(=O)CCC [pentaerythritol tetrabutyrate]
Conditions | mass density [kg/m3]
5025.9 kPa | 1062
5026.2 kPa | 1062.1
5026.4 kPa | 1061.9
5026.6 kPa | 1061.9
5037.7 kPa | 1062
5052.7 kPa | 1062
5084.5 kPa | 1061.9
5099.4 kPa | 1062.1
5117.2 kPa | 1062.1
5132.1 kPa | 1062.1
5146.8 kPa | 1062.1
5164.5 kPa | 1062.1
5180.2 kPa | 1062
5195.4 kPa | 1062.1
5213.6 kPa | 1062.2
5229.7 kPa | 1062.1
5245.8 kPa | 1062.1
5261.4 kPa | 1062.2
5277.3 kPa | 1062.1
5296.5 kPa | 1062.2
5312.6 kPa | 1062.2
5328.5 kPa | 1062.1
5347.8 kPa | 1062.1
5364.8 kPa | 1062.2
5381.7 kPa | 1062.1
5398.7 kPa | 1062.3
5419.8 kPa | 1062.2
5436.6 kPa | 1062.3
5450.9 kPa | 1062.3
5465.9 kPa | 1062.2
5510.3 kPa | 1062.3
5516.6 kPa | 1062.3
5521.7 kPa | 1062.3
5526.9 kPa | 1062.3
5532.8 kPa | 1062.3
5538.2 kPa | 1062.2
5543.2 kPa | 1062.3
5548.7 kPa | 1062.2
5553.9 kPa | 1062.3
5560.3 kPa | 1062.2
5565.4 kPa | 1062.2
5570.9 kPa | 1062.4
5577.1 kPa | 1062.3
5582.3 kPa | 1062.3
5587.5 kPa | 1062.3
5592.9 kPa | 1062.4
5599.3 kPa | 1062.2
5604.6 kPa | 1062.4
5610 kPa | 1062.4
5616.4 kPa | 1062.4
5621.6 kPa | 1062.3
5627.3 kPa | 1062.3
5632.6 kPa | 1062.3
5639.2 kPa | 1062.3
5644.4 kPa | 1062.3
5649.9 kPa | 1062.3
5655.3 kPa | 1062.3
5661.7 kPa | 1062.4
5667.2 kPa | 1062.2
5674 kPa | 1062.4
5679.3 kPa | 1062.4
5684.7 kPa | 1062.3
5690 kPa | 1062.3
5696.8 kPa | 1062.3
5702.1 kPa | 1062.4
5707.9 kPa | 1062.3
5713.6 kPa | 1062.5
5720.3 kPa | 1062.4
5725.5 kPa | 1062.5
5731.2 kPa | 1062.4
5736.6 kPa | 1062.5
5743.3 kPa | 1062.3
5749 kPa | 1062.4
5754.4 kPa | 1062.4
5761.1 kPa | 1062.4
5766.6 kPa | 1062.4
5773.7 kPa | 1062.5
5779.1 kPa | 1062.4
5803.1 kPa | 1062.5
5808.7 kPa | 1062.4
5814.4 kPa | 1062.5
5821.5 kPa | 1062.5
5827.2 kPa | 1062.4
5833 kPa | 1062.4
5839.6 kPa | 1062.5
5845.5 kPa | 1062.5
5851.5 kPa | 1062.4
5857.2 kPa | 1062.5
5864.2 kPa | 1062.5
5869.9 kPa | 1062.5
5876.8 kPa | 1062.5
5882.3 kPa | 1062.4
5888.4 kPa | 1062.6
5894.6 kPa | 1062.4
5901.3 kPa | 1062.5
5907.2 kPa | 1062.5
5913.3 kPa | 1062.5
5919.5 kPa | 1062.5
5926.4 kPa | 1062.5
5932.3 kPa | 1062.6
5938.5 kPa | 1062.6
5944.6 kPa | 1062.5
5951.6 kPa | 1062.5
5957.7 kPa | 1062.5
5963.8 kPa | 1062.5
5971 kPa | 1062.5
5977.1 kPa | 1062.7
5983.3 kPa | 1062.6
5989.3 kPa | 1062.6
5996.6 kPa | 1062.6
6002.8 kPa | 1062.6
6009.4 kPa | 1062.5
6016.2 kPa | 1062.6
6022.5 kPa | 1062.7
6029.9 kPa | 1062.5
6036 kPa | 1062.6
6042.3 kPa | 1062.6
6048.4 kPa | 1062.6
6056 kPa | 1062.7
6062 kPa | 1062.6
6068.3 kPa | 1062.6
6075.9 kPa | 1062.6
6082.1 kPa | 1062.6
6088.5 kPa | 1062.6
6095.2 kPa | 1062.7
6100.5 kPa | 1062.6
6106.9 kPa | 1062.6
6114.5 kPa | 1062.7
6120.9 kPa | 1062.6
6127.1 kPa | 1062.6
6134.7 kPa | 1062.6
6140.7 kPa | 1062.6
6147.1 kPa | 1062.7
6153.9 kPa | 1062.7
6161.5 kPa | 1062.6
6167.9 kPa | 1062.6
6174.6 kPa | 1062.7
6182.6 kPa | 1062.6
6188.8 kPa | 1062.7
6195.4 kPa | 1062.8
6202.1 kPa | 1062.6
6210.1 kPa | 1062.8
6216.6 kPa | 1062.6
6223.4 kPa | 1062.6
6229.9 kPa | 1062.6
6237.5 kPa | 1062.7
